Data as given in BindingDB's records for patent US20250313563 (The Broad Institute, 2025).
“And” between values parts separate entries of the source, which are not always exact repeats. Equal values may be shown once.

Experiments:
[1] = target: Glycogen synthase kinase-3 alpha (Homo sapiens, UniProt P49840); assay: TR-FRET Assay
In short: (§1)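 Kinase activity, measured after a 30-minute compound preincubation, was stopped with EDTA and quantified by TR-FRET using a Tb-labelled pSer641 antibody paired with streptavidin-d2.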

[2] = target: Glycogen synthase kinase-3 beta (Homo sapiens, UniProt P49841); assay: TR-FRET Assay
In short: as §1

Sequence of Glycogen synthase kinase-3 beta (P49841 whole entry): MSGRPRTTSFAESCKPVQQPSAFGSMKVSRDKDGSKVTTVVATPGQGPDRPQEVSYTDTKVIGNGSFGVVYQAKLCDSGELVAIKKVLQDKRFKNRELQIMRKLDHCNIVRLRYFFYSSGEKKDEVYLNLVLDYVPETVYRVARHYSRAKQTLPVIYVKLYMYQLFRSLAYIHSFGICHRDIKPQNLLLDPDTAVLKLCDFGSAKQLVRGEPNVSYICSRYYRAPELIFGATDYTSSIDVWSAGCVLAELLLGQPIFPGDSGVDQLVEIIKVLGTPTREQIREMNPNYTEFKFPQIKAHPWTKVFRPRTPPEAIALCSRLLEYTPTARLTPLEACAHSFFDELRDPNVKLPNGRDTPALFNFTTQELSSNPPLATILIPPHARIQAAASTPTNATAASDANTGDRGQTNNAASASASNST
Sequence of Glycogen synthase kinase-3 alpha (P49840 whole entry): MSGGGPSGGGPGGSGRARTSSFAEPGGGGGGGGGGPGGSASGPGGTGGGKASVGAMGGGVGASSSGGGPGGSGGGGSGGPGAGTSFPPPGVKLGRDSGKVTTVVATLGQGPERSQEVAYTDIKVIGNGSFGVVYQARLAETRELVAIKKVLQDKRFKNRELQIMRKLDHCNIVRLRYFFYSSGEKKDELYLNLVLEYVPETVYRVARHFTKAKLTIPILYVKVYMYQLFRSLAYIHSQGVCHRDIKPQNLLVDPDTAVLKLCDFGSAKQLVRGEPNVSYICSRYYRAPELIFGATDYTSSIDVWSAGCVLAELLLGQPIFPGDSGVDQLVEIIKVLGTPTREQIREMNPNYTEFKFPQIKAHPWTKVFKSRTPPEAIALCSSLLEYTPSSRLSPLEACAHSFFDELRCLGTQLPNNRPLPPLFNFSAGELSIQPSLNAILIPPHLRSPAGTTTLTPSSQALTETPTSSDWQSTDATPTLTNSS

SMILES | IC50 [1] | IC50 [2]
CC[C@]1(c2cccc(N(C)c3ncccn3)c2)C2=C(CC(C)(C)NC2=O)NC2N=NC(C(F)(F)F)=C21 (stereo partly specified) [US20250313563, Compound 949180] | < 100 nM | 100 to 1000 nM
CC1(C)CC(=O)C2=C(C1)NC1=C(CN=N1)[C@]21CCC[C@H](C#N)C1 [US20250313563, Compound 946078] | 1000 to 5000 nM | > 5000 nM
CC[C@@]1(c2cccc(-c3cnn4c3CCCC4)c2)C2=C(CC(C)(C)NC2=O)NC2N=NC(C)=C21 (stereo partly specified) [US20250313563, Compound 947817] | < 100 nM | < 100 nM
CC[C@@]1(c2cccc(Br)c2)C2=CN=NC2NC2=C1C(=O)C[C@@H](C(F)(F)F)C2 (stereo partly specified) [US20250313563, Compound 826652] | < 100 nM | 100 to 1000 nM
CCC1(c2cccc(C(F)(F)F)c2)C2=CN=NC2NC2=C1C(=O)NC(C)C2 (stereo unspecified) [US20250313563, Compound 911956] | < 100 nM | 100 to 1000 nM
CCC1(c2cc(N3CCOCC3)ccc2F)C2=CN=NC2NC2=C1C(=O)CC(C)(C)C2 (stereo unspecified) [US20250313563, Compound 909203] | 100 to 1000 nM | 1000 to 5000 nM
CCC1(c2cccc(C(F)(F)F)c2)C2=CN=NC2NC2=C1C(=O)NC(C)(C)C2F (stereo unspecified) [US20250313563, Compound 819622] | < 100 nM | 100 to 1000 nM
CC1(C)CC(=O)C2=C(C1)NC1=C(CN=N1)C21CCC2(CCC(=O)N2)CC1 (stereo unspecified) [US20250313563, Compound 913056] | 100 to 1000 nM | 1000 to 5000 nM
CC[C@@]1(c2cccc(-c3ccnc(C)c3)c2)C2=CN=NC2NC2=C1C(=O)N[C@@]1(CCOC1)C2 (stereo partly specified) [US20250313563, Compound 947406] | < 100 nM and 100 to 1000 nM | 100 to 1000 nM and > 5000 nM
CCC1(c2cccc(O)c2)C2=C(N=NC2)NC2=C1C(=O)CC(C)(C)C2 (stereo unspecified) [US20250313563, Compound 930334] | < 100 nM | 100 to 1000 nM
CC(C)(C)CC1N=NC2=C1[C@@](C)(c1cccc(S(=O)(=O)CC3CC3)c1)C1=C(CC(C)(C)NC1=O)N2 (stereo partly specified) [US20250313563, Compound 108006] | > 5000 nM | > 5000 nM
CCC1(c2cccc(N(C)c3ncccn3)c2)C2=C(CC(C)(C)NC2=O)NC2N=NC(C)=C21 (stereo unspecified) [US20250313563, Compound 948175] | < 100 nM | < 100 nM
C[C@H]1C[C@]2(CCO1)C1=C(N=NC1)NC1=C2C(=O)CC(C)(C)C1 [US20250313563, Compound 899560] | 100 to 1000 nM | 1000 to 5000 nM
CC[C@@]1(c2cccc(-c3cnn(C)c3)c2)C2=C(CC(C)(C)NC2=O)NC2N=NC(C(F)(F)F)=C21 (stereo partly specified) [US20250313563, Compound 947877] | < 100 nM | < 100 nM and 100 to 1000 nM
CCC1(c2cccc(Br)c2)C2=C(CC(C)(C)CC2=O)NC2N=NC(C(F)(F)F)=C21 (stereo unspecified) [US20250313563, Compound 801324] | < 100 nM | < 100 nM
C[C@]1(c2ccccc2)C2=C(N=NC2)NC2=C1C(=O)CC1(CCCC1)C2 [US20250313563, Compound 792338] | < 100 nM | 100 to 1000 nM
Cc1cc([C@H]2CC[C@]3(CC2)C2=C(N=NC2)NC2=C3C(=O)CC(C)(C)C2)ccn1 [US20250313563, Compound 948415] | < 100 nM | < 100 nM
CC1(C)CC(=O)C2=C(C1)NC1=C(CN=N1)C21CCN(S(=O)(=O)c2cnn(CC(F)(F)F)c2)CC1 [US20250313563, Compound 948123] | < 100 nM and 100 to 1000 nM | < 100 nM and 100 to 1000 nM

SMILES | IC50 [1] | IC50 [2]
CC1(C)CC(=O)C2=C(C1)NC1=C(CN=N1)C21CCN(S(=O)(=O)c2cccc3c2OCCO3)CC1 [US20250313563, Compound 947464] | < 100 nM | < 100 nM and 100 to 1000 nM
COC[C@H]1C[C@@]2(C1)C1=C(N=NC1)NC1=C2C(=O)CC(C)(C)C1 [US20250313563, Compound 912173] | 100 to 1000 nM | 100 to 1000 nM
Cc1cc(S(=O)(=O)N2CCC3(CC2)C2=CN=NC2NC2=C3C(=O)CC(C)(C)C2)ccc1Cl (stereo unspecified) [US20250313563, Compound 947475] | < 100 nM | < 100 nM
CC[C@]1(c2cccc(C(F)(F)F)c2)C2=CN=NC2NC2=C1C(=O)CC1(CCCC1)C2 (stereo partly specified) [US20250313563, Compound 801311] | < 100 nM | < 100 nM and 100 to 1000 nM
CC[C@@]1(c2cccc(-c3ccncc3C)c2)C2=CN=NC2NC2=C1C(=O)N[C@@]1(CCOC1)C2 (stereo partly specified) [US20250313563, Compound 948644] | < 100 nM | < 100 nM
C[C@@H]1C[C@H](C)C(=O)C2=C1NC1=C(CN=N1)C21CCOCC1 [US20250313563, Compound 893316] | < 100 nM | 100 to 1000 nM
CO[C@H]1C[C@]2(C1)C1=C(N=NC1)NC1=C2C(=O)CC(C)(C)C1 [US20250313563, Compound 901472] | > 5000 nM | > 5000 nM
CC[C@@]1(c2cccc(Oc3ncccn3)c2)C2=CN=NC2NC2=C1C(=O)NC(C)(C)C2 (stereo partly specified) [US20250313563, Compound 949330] | < 100 nM | 100 to 1000 nM
CC[C@]1(c2cccc(-c3ccnc(N4CCCCC4)c3)c2)C2=CN=NC2NC2=C1C(=O)NC(C)(C)C2 (stereo partly specified) [US20250313563, Compound 948646] | 1000 to 5000 nM | > 5000 nM
CC1(C)CC(=O)C2=C(C1)NC1=C(CN=N1)C21COC2(CN(C(=O)C3CCC(F)(F)C3)C2)C1 (stereo unspecified) [US20250313563, Compound 947265] | < 100 nM | 100 to 1000 nM
CC1(C)CC(=O)C2=C(C1)NC1=C(CN=N1)[C@@]21CCC[C@@H](C#N)C1 [US20250313563, Compound 945906] | 100 to 1000 nM | 100 to 1000 nM
CC1(C)CC(=O)C2=C(C1)NC1=C(CN=N1)C21CN(Cc2ccccn2)C1 [US20250313563, Compound 929438] | > 5000 nM | > 5000 nM
O=C1C[C@@H](C(F)(F)F)CC2=C1C1(CCOCC1)C1=C(N=NC1)N2 [US20250313563, Compound 901478] | 100 to 1000 nM | 100 to 1000 nM
CC[C@@]1(c2cccc(-c3cnn(C)c3)c2)C2=C(CC(C)(C)NC2=O)NC2N=NC(C)=C21 (stereo partly specified) [US20250313563, Compound 945614] | 100 to 1000 nM | 100 to 1000 nM and 1000 to 5000 nM
CC[C@@]1(c2cccc(C(F)(F)F)c2)C2=CN=NC2NC2=C1C(=O)NC1(CCC1)C2 (stereo partly specified) [US20250313563, Compound 914344] | 100 to 1000 nM | > 5000 nM
CC[C@]1(c2cccc(-c3ccnc(C)c3)c2)C2=CN=NC2NC2=C1C(=O)NC1(CCCC1)C2 (stereo partly specified) [US20250313563, Compound 948660] | < 100 nM | < 100 nM
CC1(C)CC(=O)C2=C(C1)NC1=C(CN=N1)C21CN(c2cccnc2)C1 [US20250313563, Compound 947813] | 1000 to 5000 nM | 1000 to 5000 nM

Other lines, results leading:

IC50 [1] | IC50 [2] | SMILES
100 to 1000 nM | > 5000 nM | CC[C@@]1(c2cccc(-c3cnn(CC(=O)N(C)C)c3)c2)C2=CN=NC2NC2=C1C(=O)NC(C)(C)C2 (stereo partly specified) [US20250313563, Compound 952208]
< 100 nM | 1000 to 5000 nM | CC[C@]1(c2cccc(-c3ccnc(C)c3)c2)C2=CN=NC2NC2=C1C(=O)N[C@H](C)C2 (stereo partly specified) [US20250313563, Compound 926212]
< 100 nM | < 100 nM and 100 to 1000 nM | CCn1nccc1-c1cccc([C@]2(CC)C3=CN=NC3NC3=C2C(=O)CC(C)(C)C3)c1 (stereo partly specified) [US20250313563, Compound 946089]
< 100 nM | 100 to 1000 nM | CC[C@]1(c2cccc(-c3ccncc3)c2)C2=CN=NC2NC2=C1C(=O)C[C@H](C)C2 (stereo partly specified) [US20250313563, Compound 874318]
< 100 nM | 100 to 1000 nM | CCC1(c2cccc(N(C)C(=O)CCc3ccccc3)c2)C2=CN=NC2NC2=C1C(=O)CC(C)(C)C2 (stereo unspecified) [US20250313563, Compound 912066]
< 100 nM and 100 to 1000 nM | 100 to 1000 nM and > 5000 nM | CC[C@@]1(c2cccc(-c3ccnc(C)c3)c2)C2=CN=NC2NC2=C1C(=O)N[C@H](C)C2 (stereo partly specified) [US20250313563, Compound 926300]
100 to 1000 nM | > 5000 nM | CCC1(c2cccc(CN(C)C(=O)COC)c2)C2=CN=NC2NC2=C1C(=O)CC(C)(C)C2 (stereo unspecified) [US20250313563, Compound 865196]
< 100 nM | < 100 nM | CCC1(c2cccc(-c3c(C)nn(C)c3C)c2)C2=CN=NC2NC2=C1C(=O)NC(C)(C)C2 (stereo unspecified) [US20250313563, Compound 945462]
< 100 nM | < 100 nM | CCC1(c2cccc(-c3ccncc3C)c2)C2=CN=NC2NC2=C1C(=O)CC(C)(C)C2 (stereo unspecified) [US20250313563, Compound 913351]
< 100 nM | 100 to 1000 nM | CC[C@]1(c2cccc(-c3cc(C)ncc3OC)c2)C2=CN=NC2NC2=C1C(=O)NC(C)(C)C2 (stereo partly specified) [US20250313563, Compound 949522]
< 100 nM | < 100 nM | CC[C@]1(c2cccc(Cl)c2)C2=C(CC(C)(C)CC2=O)NC2N=NC(C)=C21 (stereo partly specified) [US20250313563, Compound 790612]
< 100 nM | 100 to 1000 nM | CCC1(c2cccc(-c3ccnc(OC(F)F)c3)c2)C2=CN=NC2NC2=C1C(=O)CC(C)(C)C2 (stereo unspecified) [US20250313563, Compound 932629]
< 100 nM | 100 to 1000 nM | CCC1(c2cccc(-c3ccnc(CCO)c3)c2)C2=CN=NC2NC2=C1C(=O)CC(C)(C)C2 (stereo unspecified) [US20250313563, Compound 945992]
< 100 nM and 100 to 1000 nM | < 100 nM and 1000 to 5000 nM | CC[C@@]1(c2cccc(-c3ccnc(C)c3F)c2)C2=CN=NC2NC2=C1C(=O)CC(C)(C)C2 (stereo partly specified) [US20250313563, Compound 927347]
< 100 nM | < 100 nM and 100 to 1000 nM | CCC1(c2cccc(-c3cc(C)nn3C)c2)C2=C(CC(C)(C)CC2=O)NC2N=NC(C(F)(F)F)=C21 (stereo unspecified) [US20250313563, Compound 945532]
< 100 nM | 100 to 1000 nM | CCC1(c2cccc(N(C)c3cccc(OC)n3)c2)C2=CN=NC2NC2=C1C(=O)CC(C)(C)C2 (stereo unspecified) [US20250313563, Compound 913121]
100 to 1000 nM | 1000 to 5000 nM | CCN(c1cccc(C2(CC)C3=CN=NC3NC3=C2C(=O)CC(C)(C)C3)c1)c1cccnc1C (stereo unspecified) [US20250313563, Compound 885367]
> 5000 nM | > 5000 nM | CC[C@@]1(c2cccc(Br)c2)C2=CN=NC2NC2=C1C(=O)[C@H](F)C(C)(C)C2 (stereo partly specified) [US20250313563, Compound 835313]
